Test results taken from ChEMBL document CHEMBL1201862, “PubChem BioAssay data set” (2004).
The source made the active and inactive calls.

What was measured:
P388/ADR = assay: cells; format: functional; details: Mus musculus
SN12K1 = assay: cells; format: functional; details: Homo sapiens
P388 = assay: cells; format: functional; details: Mus musculus
H9c2 = assay: cells; format: functional, cell-based; details: Rattus norvegicus, H9c2, Myocardium;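 note: confirmatory concentration-response retest of ultra-high-throughput screening hits for modulation of myocardial damage; cell death induced by hydrogen peroxide oxidative stress; compound pretreatment for 60 min then peroxide exposure for 2 h; potency is for protecting the cells against peroxide damage rather than for killing them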
[1] = viability of uninfected HEp-2 cells – cell-based, HTS, cytotoxicity control for RSV inhibitor project, dose response (AID 2410); format: functional; details: human respiratory syncytial virus
[2] = biological target: T1, Heat shock factor protein 1 (Mus musculus, UniProt P38532); assay: enhancement of HSF1-driven luciferase signal – cell-based, NIH3T3, luminescence, dose retest, confirmation (AID 435004); format: functional;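 note: stress induced by proteasome inhibitor MG132 added 30 min after compound; luciferase reporter driven by HSF1 response element in NIH3T3 cells; actives raise luminescence as potentiators of the MG132 stress response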
T1 sequence (P38532 whole entry): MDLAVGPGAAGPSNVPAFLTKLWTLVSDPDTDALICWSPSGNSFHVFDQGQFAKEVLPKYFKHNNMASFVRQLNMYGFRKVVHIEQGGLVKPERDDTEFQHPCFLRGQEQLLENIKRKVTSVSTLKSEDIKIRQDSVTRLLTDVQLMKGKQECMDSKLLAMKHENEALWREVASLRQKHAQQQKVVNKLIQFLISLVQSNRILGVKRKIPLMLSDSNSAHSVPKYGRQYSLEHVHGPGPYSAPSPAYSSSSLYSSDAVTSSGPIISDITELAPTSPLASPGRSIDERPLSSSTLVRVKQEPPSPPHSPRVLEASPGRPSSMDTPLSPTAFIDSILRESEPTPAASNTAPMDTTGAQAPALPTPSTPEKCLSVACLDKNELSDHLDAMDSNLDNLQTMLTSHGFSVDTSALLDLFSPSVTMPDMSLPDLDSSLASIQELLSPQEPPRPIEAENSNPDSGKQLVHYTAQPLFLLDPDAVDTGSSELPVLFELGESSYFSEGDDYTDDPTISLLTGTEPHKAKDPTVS

Caspase-3 = biological target: T2, Caspase-3 (Homo sapiens, UniProt P42574); format: functional;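 note: Dose-response selectivity test against caspase-3 for candidate inhibitors of sentrin-specific proteases (SENPs)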
T2 sequence (P42574 whole entry): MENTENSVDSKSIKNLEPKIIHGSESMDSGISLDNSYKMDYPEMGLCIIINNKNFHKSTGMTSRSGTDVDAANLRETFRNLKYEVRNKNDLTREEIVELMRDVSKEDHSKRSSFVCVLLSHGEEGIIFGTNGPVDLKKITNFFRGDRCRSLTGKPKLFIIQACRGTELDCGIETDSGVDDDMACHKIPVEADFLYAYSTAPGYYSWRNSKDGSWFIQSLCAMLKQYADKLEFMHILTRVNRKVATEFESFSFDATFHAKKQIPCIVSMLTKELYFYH

[3] = biological target: T3, Sentrin-specific protease 7 (Homo sapiens, UniProt Q9BQF6); format: functional;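 note: Luminescence-based dose-response confirmation of ultra-high-throughput screening hits, measuring inhibition of SENP7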
T3 sequence (Q9BQF6 whole entry): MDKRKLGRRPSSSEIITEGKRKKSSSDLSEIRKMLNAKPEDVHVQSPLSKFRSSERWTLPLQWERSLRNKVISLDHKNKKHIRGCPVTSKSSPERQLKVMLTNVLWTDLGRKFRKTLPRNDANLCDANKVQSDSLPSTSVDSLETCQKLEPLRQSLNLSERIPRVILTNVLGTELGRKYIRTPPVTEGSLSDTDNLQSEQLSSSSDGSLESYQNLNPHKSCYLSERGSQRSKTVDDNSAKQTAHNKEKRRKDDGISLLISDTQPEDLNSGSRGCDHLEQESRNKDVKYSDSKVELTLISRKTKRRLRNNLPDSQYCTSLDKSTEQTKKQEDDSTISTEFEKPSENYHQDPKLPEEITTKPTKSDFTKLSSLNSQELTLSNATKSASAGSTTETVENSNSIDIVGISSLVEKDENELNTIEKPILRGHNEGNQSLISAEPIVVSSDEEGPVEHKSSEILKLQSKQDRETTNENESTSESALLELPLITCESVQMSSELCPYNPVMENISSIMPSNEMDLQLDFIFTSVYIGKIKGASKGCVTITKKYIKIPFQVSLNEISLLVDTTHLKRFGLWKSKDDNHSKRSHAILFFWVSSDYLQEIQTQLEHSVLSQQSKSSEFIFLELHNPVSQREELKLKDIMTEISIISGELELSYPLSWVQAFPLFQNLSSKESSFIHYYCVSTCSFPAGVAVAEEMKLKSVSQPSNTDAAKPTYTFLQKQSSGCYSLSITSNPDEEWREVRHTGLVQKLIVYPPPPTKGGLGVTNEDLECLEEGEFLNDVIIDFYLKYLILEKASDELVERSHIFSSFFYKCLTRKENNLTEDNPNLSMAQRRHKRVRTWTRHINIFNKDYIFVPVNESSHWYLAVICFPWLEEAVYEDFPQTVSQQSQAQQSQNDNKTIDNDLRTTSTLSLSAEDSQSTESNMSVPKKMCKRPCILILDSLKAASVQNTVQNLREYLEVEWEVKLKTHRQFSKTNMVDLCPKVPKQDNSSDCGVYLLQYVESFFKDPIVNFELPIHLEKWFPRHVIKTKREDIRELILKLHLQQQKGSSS

[4] = biological target: T4, Sentrin-specific protease 6 (Homo sapiens, UniProt Q9GZR1); format: functional;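 note: Luminescence-based dose-response confirmatory assay of SENP6 inhibition, following up an ultra-high-throughput screen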
T4 sequence (Q9GZR1 whole entry): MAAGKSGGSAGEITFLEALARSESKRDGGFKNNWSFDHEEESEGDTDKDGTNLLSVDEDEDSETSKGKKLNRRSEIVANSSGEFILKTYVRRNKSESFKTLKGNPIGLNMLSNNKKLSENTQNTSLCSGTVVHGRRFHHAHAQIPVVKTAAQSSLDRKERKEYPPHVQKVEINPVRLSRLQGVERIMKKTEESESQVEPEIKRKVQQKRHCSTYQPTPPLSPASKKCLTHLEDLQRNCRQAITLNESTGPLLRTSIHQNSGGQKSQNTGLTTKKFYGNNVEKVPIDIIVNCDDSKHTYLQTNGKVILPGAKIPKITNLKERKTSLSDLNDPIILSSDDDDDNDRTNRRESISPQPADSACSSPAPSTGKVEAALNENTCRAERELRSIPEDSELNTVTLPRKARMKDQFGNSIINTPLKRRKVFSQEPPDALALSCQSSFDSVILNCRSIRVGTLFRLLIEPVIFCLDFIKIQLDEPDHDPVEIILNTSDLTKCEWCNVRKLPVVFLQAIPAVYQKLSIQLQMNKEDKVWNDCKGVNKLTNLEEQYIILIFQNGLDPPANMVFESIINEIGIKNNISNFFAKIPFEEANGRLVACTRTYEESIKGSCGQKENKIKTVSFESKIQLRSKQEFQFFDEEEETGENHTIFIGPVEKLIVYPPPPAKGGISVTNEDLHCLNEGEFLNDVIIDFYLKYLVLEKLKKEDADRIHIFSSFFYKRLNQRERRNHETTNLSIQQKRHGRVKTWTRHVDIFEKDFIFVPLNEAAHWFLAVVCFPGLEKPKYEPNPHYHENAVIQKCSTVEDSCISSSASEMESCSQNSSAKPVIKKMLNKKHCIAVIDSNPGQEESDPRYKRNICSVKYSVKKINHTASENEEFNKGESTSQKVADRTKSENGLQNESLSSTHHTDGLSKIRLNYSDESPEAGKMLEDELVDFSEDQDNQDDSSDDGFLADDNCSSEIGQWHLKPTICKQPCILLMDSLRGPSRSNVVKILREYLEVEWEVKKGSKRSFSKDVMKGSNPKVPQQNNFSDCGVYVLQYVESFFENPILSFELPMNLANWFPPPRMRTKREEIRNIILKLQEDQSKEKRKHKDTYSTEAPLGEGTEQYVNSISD

[5] = biological target: T5, Sentrin-specific protease 8 (Homo sapiens, UniProt Q96LD8); format: functional;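 note: luminescence read-out of SENP8 inhibition, dose-response confirmation following an ultra-high-throughput screen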
T5 sequence (Q96LD8 whole entry): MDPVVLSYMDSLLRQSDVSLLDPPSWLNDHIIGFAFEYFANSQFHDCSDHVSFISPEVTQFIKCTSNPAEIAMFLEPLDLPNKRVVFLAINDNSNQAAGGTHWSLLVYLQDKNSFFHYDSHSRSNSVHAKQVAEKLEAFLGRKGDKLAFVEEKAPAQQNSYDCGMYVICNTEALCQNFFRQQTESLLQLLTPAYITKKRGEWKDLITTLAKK

[6] = biological target: T6, Mannose-6-phosphate isomerase (Homo sapiens, UniProt P34949); assay: MPI inhibition at elevated mannose 6-phosphate – biochemical, fluorescence intensity, high mannose 6-phosphate, primary screen (AID 1220)
T6 sequence (P34949 whole entry): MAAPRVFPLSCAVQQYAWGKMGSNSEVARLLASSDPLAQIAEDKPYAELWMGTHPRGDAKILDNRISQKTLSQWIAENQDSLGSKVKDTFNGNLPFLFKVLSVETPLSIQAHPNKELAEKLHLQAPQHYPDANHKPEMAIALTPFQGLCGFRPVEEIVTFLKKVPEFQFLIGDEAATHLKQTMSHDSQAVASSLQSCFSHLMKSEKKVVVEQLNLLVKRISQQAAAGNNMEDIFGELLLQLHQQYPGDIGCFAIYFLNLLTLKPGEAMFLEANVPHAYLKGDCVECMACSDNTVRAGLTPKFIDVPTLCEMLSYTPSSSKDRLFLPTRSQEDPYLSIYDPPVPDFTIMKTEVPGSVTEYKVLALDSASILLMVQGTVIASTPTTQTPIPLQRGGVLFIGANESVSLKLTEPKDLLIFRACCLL

Vero = assay: viability of Vero cells under compound – cytotoxicity control for flavivirus capping enzyme inhibitors (AID 588742); format: functional; details: Chlorocebus sabaeus
[7] = biological target: T7, Rac GTPase-activating protein 1 (Homo sapiens, UniProt Q9H0H5); assay: blockers of MgcRacGAP-driven Rac1 GTP hydrolysis – biochemical, ADP Hunter fluorescence, primary and confirmatory, confirmation (AID 624330); format: functional
T7 sequence (Q9H0H5 whole entry): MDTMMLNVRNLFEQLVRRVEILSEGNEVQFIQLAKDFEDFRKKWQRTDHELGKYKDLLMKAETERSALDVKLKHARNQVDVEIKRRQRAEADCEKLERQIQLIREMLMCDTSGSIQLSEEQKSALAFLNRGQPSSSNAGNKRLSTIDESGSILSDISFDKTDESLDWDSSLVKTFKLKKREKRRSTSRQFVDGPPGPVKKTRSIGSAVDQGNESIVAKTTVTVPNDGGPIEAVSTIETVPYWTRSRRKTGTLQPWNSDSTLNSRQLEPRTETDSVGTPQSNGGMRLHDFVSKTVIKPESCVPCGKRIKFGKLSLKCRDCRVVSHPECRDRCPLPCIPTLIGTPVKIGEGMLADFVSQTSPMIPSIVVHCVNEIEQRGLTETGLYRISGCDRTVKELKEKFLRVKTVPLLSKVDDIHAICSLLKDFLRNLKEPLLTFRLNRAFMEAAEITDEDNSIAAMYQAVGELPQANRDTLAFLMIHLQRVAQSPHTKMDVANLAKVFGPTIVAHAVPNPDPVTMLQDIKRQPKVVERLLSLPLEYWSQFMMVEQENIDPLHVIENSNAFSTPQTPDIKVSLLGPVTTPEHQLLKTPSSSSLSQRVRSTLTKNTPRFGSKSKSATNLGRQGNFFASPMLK

Q: What does the source list for `C[C@H]1[C@@H]2C[C@@H]3O[C@@]34[C@H]3CCC5Cc6nc7c(nc6C[C@@]5(C)[C@]3(O)CC(=O)[C@@]24CO[C@]12OC(C)(C)C[C@@H]2O)CC1CC[C@@H]2C3=C[C@H]4O[C@@]5(OC(C)(CO)C[C@@H]5O)[C@H](C)[C@@]4(O)[C@]3(C)[C@@H](O)CC2[C@]1(C)C7` (stereo partly drawn)?
A: GI50 (P388/ADR): 0.0718 µM (active); GI50 (SN12K1): 0.00221 µM (active); GI50 (P388): 0.0017 µM (active)

Q: With `COc1ccc(Cl)cc1NC(=O)CCS(=O)(=O)c1cc2c(cc1C)NC(=O)CO2` as the compound, how does the IC50 (H9c2) read?
A: > 79 µM (inactive)

Q: With `O=C(Nc1ccc(C2=NCCN2)cc1)c1cncc(C(=O)Nc2ccc(C3=NCCN3)cc2)c1` as the compound, how does the GI50 (P388/ADR) read?
A: > 100 µM (inactive)

Q: And the GI50 (SN12K1)?
A: > 100 µM (inactive)

Q: And the GI50 (P388)?
A: 24.2 µM (inactive)

Q: Which results are given for `O=C(O)CCCCCCCCC(=O)O` [SEBACIC ACID]?
A: GI50 (P388/ADR): > 500 µM (inactive); GI50 (SN12K1): > 500 µM (inactive); GI50 (P388): 316 µM (inactive)

Q: For `c1cncc(-c2nc(NCC3COc4ccccc4O3)c3ccccc3n2)c1` (stereo not drawn), which CC50 [1] is on record?
A: 10.2 µM (active)

Q: And the IC50 (H9c2)?
A: > 79 µM (inactive)

Q: Which results are given for `Cc1cc(C)n2nc(C(=O)N/N=C/c3c4ccccc4cc4ccccc34)nc2n1`?
A: EC50 [2]: > 260 µM (inactive); IC50 (H9c2): > 79 µM (inactive)

Q: For `COC(=O)[C@@H]1c2cc3c(c(O)c2[C@@H](OC)C[C@@]1(C)O)C(=O)c1c(O)cc2c(c1C3=O)OC1O[C@@]2(C)[C@H](O)[C@@H](N(C)C)[C@@H]1O`, which GI50 (P388/ADR) is on record?
A: 1.29 µM (inactive)

Q: And the GI50 (SN12K1)?
A: 0.352 µM (active)

Q: What about the GI50 (P388) of the same compound?
A: 0.092 µM (active)

Q: Which IC50 (H9c2) does the source give for `COc1ccc(C(=O)O/N=C(/c2ccccc2)c2ccncc2)cc1OC` here?
A: 6.72 µM (active)

Q: Which results are given for `Cc1ccc(C(=O)COC(=O)c2ccc(Cl)c(N)c2)s1`?
A: IC50 (Caspase-3): 15 µM (active); IC50 [3]: 5.51 µM (active); IC50 [4]: 17.4 µM (active); IC50 [5]: 23.1 µM (active)

Q: With `Cn1c2ccccc2c(=O)c2c(O)cc3c(c21)C=CC(C)(C)O3` [NORACRONYCINE] as the compound, how does the GI50 (P388/ADR) read?
A: > 25 µM (inactive)

Q: What about the GI50 (SN12K1) of the same compound?
A: > 25 µM (inactive)

Q: What about the GI50 (P388) of the same compound?
A: > 25 µM (inactive)

Q: Which results are given for `CCC1CN2CCC1CC2` (stereo not drawn)?
A: GI50 (P388/ADR): > 100 µM (inactive); GI50 (SN12K1): > 100 µM (inactive); GI50 (P388): 80.4 µM (inactive)

Q: Which IC50 (H9c2) does the source give for `O=C(CN1CCN(Cc2ccccc2)CC1)Nc1ccc([N+](=O)[O-])cc1C(=O)Nc1ccccc1F` here?
A: > 79 µM (inactive)

Q: For `O=C(/C=C/c1ccc(Cl)c([N+](=O)[O-])c1)Nc1cccnc1`, which IC50 (H9c2) is on record?
A: > 79 µM (inactive)

Q: With `COc1ccc2c(c1)-c1nc(/N=C/c3ccccc3O)sc1CC2` as the compound, how does the IC50 [6] read?
A: > 50 µM (not active)

Q: And the CC50 (Vero)?
A: > 40 µM (active)

Q: And the IC50 [7]?
A: 20 µM (active)
